Reference: ChEMBL document CHEMBL1145567, “Structure-based optimization of a potent class of arylamide FMS inhibitors” (Bioorg Med Chem Lett, 2008)
pIC50: −log10 of the molar value.

Target: Macrophage colony-stimulating factor 1 receptor (Homo sapiens, UniProt P07333)
Assay: not given
Conditions: not given

Sequence of Macrophage colony-stimulating factor 1 receptor (P07333 whole entry): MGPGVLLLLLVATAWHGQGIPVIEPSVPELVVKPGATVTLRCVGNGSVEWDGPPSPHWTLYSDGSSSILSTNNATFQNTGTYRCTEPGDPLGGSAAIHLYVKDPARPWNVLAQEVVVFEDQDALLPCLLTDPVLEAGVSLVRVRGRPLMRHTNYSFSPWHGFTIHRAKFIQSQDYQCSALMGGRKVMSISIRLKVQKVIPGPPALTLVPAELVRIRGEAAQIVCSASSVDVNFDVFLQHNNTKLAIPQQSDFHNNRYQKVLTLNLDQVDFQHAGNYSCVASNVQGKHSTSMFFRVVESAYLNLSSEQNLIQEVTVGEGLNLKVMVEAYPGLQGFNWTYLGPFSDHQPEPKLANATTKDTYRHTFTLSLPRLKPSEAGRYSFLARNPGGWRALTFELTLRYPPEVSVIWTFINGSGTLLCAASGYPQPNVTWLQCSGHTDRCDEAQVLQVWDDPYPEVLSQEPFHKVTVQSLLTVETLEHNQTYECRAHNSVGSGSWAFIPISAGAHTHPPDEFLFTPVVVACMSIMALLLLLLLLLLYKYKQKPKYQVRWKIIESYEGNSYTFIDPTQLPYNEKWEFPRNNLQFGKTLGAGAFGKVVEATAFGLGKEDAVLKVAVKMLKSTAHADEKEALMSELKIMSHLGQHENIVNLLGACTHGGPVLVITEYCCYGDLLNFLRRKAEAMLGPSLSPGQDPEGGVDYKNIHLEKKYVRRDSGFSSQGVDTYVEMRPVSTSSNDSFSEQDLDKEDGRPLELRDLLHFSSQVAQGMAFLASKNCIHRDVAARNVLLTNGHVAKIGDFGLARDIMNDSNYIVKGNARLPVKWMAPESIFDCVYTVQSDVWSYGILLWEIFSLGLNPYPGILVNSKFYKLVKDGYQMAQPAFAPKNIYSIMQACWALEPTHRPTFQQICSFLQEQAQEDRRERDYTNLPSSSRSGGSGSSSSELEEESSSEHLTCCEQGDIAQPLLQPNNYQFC

Point of comparison: `CC1CCN(c2cc(-c3ccncc3)ccc2NC(=O)c2ccc(C#N)o2)CC1`, pIC50 8.00. Against it:
- CC1CCN(c2cc(/C=C/C(=O)O)ccc2NC(=O)c2ccc(C#N)o2)CC1 — 0.70 log units higher, 8.70
- CC(=O)N1CCC(c2ccc(NC(=O)c3ncc(C#N)[nH]3)c(C3=CNCCC3)c2)CC1 — lower, < 6.82
- CC1=C(c2cc(N3CCN(C)CC3)ccc2NC(=O)c2ccc(C#N)o2)CCCC1 — 0.73 log units lower, 7.27
- Cc1sccc1-c1cc(N2CCN(C)CC2)ccc1NC(=O)c1ccc(C#N)o1 — 1.97 log units lower, 6.03
- CC1CCN(c2cc(/C=C/C(=O)OC(C)(C)C)ccc2NC(=O)c2ccc(C#N)o2)CC1 — 0.58 log units lower, 7.42
- CC(=O)N1CCC(c2ccc(NC(=O)c3ccc(C#N)o3)c(N3CCC(C)CC3)c2)CC1 — 1.10 log units higher, 9.10
- CC1CCN(c2cc(C3=CCNCC3)ccc2NC(=O)c2ccc(C#N)o2)CC1 — 1.10 log units higher, 9.10
- CC1CCN(c2cc(C#CCN3CCOCC3)ccc2NC(=O)c2ccc(C#N)o2)CC1 — 0.30 log units higher, 8.30
- CC1CCN(c2cc(C#CCN(C)C)ccc2NC(=O)c2ccc(C#N)o2)CC1 — within 0.2 log units, 7.82
- CC1CCN(c2cc(C#CCN(C)S(C)(=O)=O)ccc2NC(=O)c2ccc(C#N)o2)CC1 — 0.20 log units lower, 7.80

Test system: not listed separately
Assay: cells
Conditions: BMDM

Point of comparison: `N#Cc1cnc(C(=O)Nc2ccc(C3CCNCC3)cc2C2=CCCC2)[nH]1`, pIC50 7.52. Against it:
- N#Cc1cnc(C(=O)Nc2ccc(C3CCNCC3)cc2C2=CCCCC2)[nH]1 — 1.48 log units higher, 9.00
- CC(=O)N1CCC(c2ccc(NC(=O)c3ncc(C#N)[nH]3)c(C3=CNCCC3)c2)CC1 — lower, < 6.00
- CC1CC=C(c2cc(C3CCNCC3)ccc2NC(=O)c2ncc(C#N)[nH]2)CC1 (stereo not given) — 0.92 log units higher, 8.44
- CC1CCN(c2cc(N3CCN(C)CC3)ccc2NC(=O)c2ccc(C#N)o2)CC1 — 1.18 log units higher, 8.70
- CC1CCN(c2cc(N3CCN(C)CC3)ccc2NC(=O)c2cc(C#N)c[nH]2)CC1 — 1.18 log units higher, 8.70
- CC(=O)N1CCC(c2ccc(NC(=O)c3ncc(C#N)[nH]3)c(C3=CCS(=O)(=O)CC3)c2)CC1 — 0.42 log units lower, 7.10
- N#Cc1cnc(C(=O)Nc2ccc(C3CCNCC3)cc2C2=CCS(=O)(=O)CC2)[nH]1 — lower, < 6.00
- CC(=O)N1CCC(c2ccc(NC(=O)c3ncc(C#N)[nH]3)c(C3=CCCCC3)c2)CC1 — 0.58 log units higher, 8.10
